Data on two compounds can be found in patent US11723883B2, “Hydroxynorketamine for the use in the treatment of depression” (DEVELCO PHARMA SCHWEIZ AG, priority 2017, dated 2023).

Series [1] is described as follows: Dose-escalation pharmacokinetics and metabolism study in 15 healthy subjects (LC-MS/MS). The method, then: (§1) A dose-escalation study was performed in five consecutive periods (7 days wash-out) in 15 healthy subjects (5 females, 20-25, BMI 19.4-27.6 kg/m2). The racemic analytes were measured using validated LC-MS/MS methods according to Hasan et al., 2017 (Hasan et al., Quantitative chiral and achiral determination of ketamine and its metabolites by LC-MS/MS in human serum, urine and fecal samples, Journal of Pharmaceutical and Biomedical Analysis, 2017, 139, 87-97).
(§2) In addition, 5 mg ketamine (in form of ketamine hydrochloride) solution was intravenously administered within 30 min in fasting state.
The pharmacokinetics of ketamine and its metabolites norketamine and hydroxynorketamine were measured and depicted in the following table 1. AUC stands for the area under the curve, Cmax stands for the maximum plasma concentration, Tmax stands for the time to Cmax, F stands for absolute bioavailability, T1/2 stands for the apparent terminal half-life, AUCNK/K for the ratio of AUCNK to AUCK and AUCHNK/K for the ratio of AUCHNK to AUCK.
The maximum concentration (Cmax) and the time of maximum concentration (Tmax) were obtained directly from the measured concentration-time curves.
The area under the concentrations-time curve (AUC) was calculated with the measured data points from the time of administration until the last quantifiable concentration by the trapezoidal formula. The AUC was assessed up to the last sampling time above the limit of quantification and is extrapolated to infinity to obtain the AUC values.
Apparent Terminal half-life (T1/2) was calculated by the following equation T1/2=ln 2/λz.
The terminal elimination rate constant (λz) was evaluated from the terminal slope by log-linear regression analysis.
The absolute bioavailability (F) was calculated by the following equation Fabs=AUCoral/AUCiv×doseiv/doseoral. 4.2 Safety

In series [2] the test system is patients with major depressive disorder and bipolar depression. The conditions noted are these: single intravenous 40-minute infusion; lasting 1 week; Zarate et al., 2012; cited from earlier work.
Series [3] in a line: Safety: adverse events in the dose-escalation study in healthy subjects. The method, then:
as §1, §2
An adverse event (AE) therefore can be any unfavorable and unintended sign including an abnormal laboratory (or vital, ECG etc.) finding, symptom or disease temporally associated with the use of a medicinal (investigational) product, whether or not related to the medicinal (investigational) product.
A serious adverse event (SAE) is defined as any untoward medical occurrence that at any dose • results in death, or • is life-threatening, or • requires hospitalization or prolongation of existing hospitalization, or • results in persistent or significant disability/incapacity, or • is a congenital anomaly/birth defect
Adverse events (AE) were detected both by a standardized questionnaire on tolerability and by querying the subjects at the scheduled times. Furthermore, the subjects were asked to report any AE spontaneously.

Series [4] has as its system mice. Conditions: Zanos et al., 2016, cited from earlier work.
[5] abbreviates: 5 mg ketamine i.v. infusion (30 min), fasting.
The mark [6] stands for this setting: Treatment A ketamine 5 mg i.v., AEs certainly, probably or possibly related.

The term AUC denotes concentration integrated over time. The term Cmax denotes the peak of the concentration-time curve. In general, MRT refers to a mean duration of stay, worked out from the concentration-time curve. One may read the Vd as the apparent volume that relates the amount in the body to the concentration in plasma or blood. What is called half-life is the time needed for the level to fall by half in the phase considered. Lower therefore signals rapid decline. As for `CNC1(c2ccccc2Cl)CCCCC1=O` (racemic) [ketamine, 2-(2-chlorophenyl)-2-(methylamino) cyclohexan-1-one], in series [1] (setting [5]), the CL/F of ketamine stood at 1.67 ± 0.380 L/min, the CLM of ketamine is 268 ± 75.6 mL/min and the CLintestinal of ketamine was 0.046 ± 0.097 mL/min. Further, in series [1] (both, human, plasma, iv, 5 mg), the AUC came out at 52.3 ± 12.2 ng·h/mL, the CL renal is 33.6 ± 36.5 mL/min, the peak concentration (Cmax) turned out to be 29.9 ± 8.48 ng/mL and the MRT is 4.68 ± 2.01 h. In series [1] (both, human, plasma, iv, 5 mg), this compound gave a volume of distribution (Vd) of 6.58 ± 3.07 L/kg and a half-life of 5.89 ± 2.61 h. Moreover, the “improvement in patients with major depressive disorder and bipolar depression” value in series [2] is on record as “rapid improvement”. For the same compound, in series [3] (Treatment A (ketamine 5 mg i.v.)), the “Number of AEs” value amounted to 10. In addition, in series [3] (setting [6]), the “Number of subjects reporting dizziness (nervous system disorders)” value is reported as 6, the “Number of subjects reporting palpitation (cardiac disorders)” value is given as 1, the “Number of subjects reporting tachycardia (cardiac disorder)” value was determined as 1 and the “Percent of subjects reporting dizziness (nervous system disorders)” value worked out at 40%. Besides, in series [3] (setting [6]), the “Percent of subjects reporting palpitation (cardiac disorders)” value is recorded as 7% and the “Percent of subjects reporting tachycardia (cardiac disorder)” value came to 7%.

`N[C@@]1(c2ccccc2Cl)CCC[C@@H](O)C1=O` [(2R,6R)-hydroxynorketamine]: the ketamine-related side effects result in series [4] is given as “lack ketamine-related side effects”. Further, the antidepressant-related actions result in series [4] (independent of NMDR-inhibition) is reported as “exerts antidepressant-related actions”.
